Data taken from ChEMBL document CHEMBL1142186, “Multistep resistance selection and postantibiotic-effect studies of the antipneumococcal activity of LBM415 compared to other agents” (2007).
Converted amounts (≈) assume the structure as drawn.

Key:
Assay type in all cases: functional
Streptococcus pneumoniae [1] = assay: Antibacterial activity against moxifloxacin resistance selected Streptococcus pneumoniae 3676 with GyrA E85G, GyrB S478I and ParC S79Y mutation after 10 antibiotic-free subcultures by macrodilution method
Streptococcus pneumoniae [2] = assay: Antibacterial activity against azithromycin resistance selected Streptococcus pneumoniae 3243 with L22 insertion 93SFRPRA94 mutation after 10 antibiotic-free subcultures by macrodilution method
Streptococcus pneumoniae [3] = assay: Antibacterial activity against clarithromycin resistance selected Streptococcus pneumoniae 3676 after 10 antibiotic-free subcultures by macrodilution method
Streptococcus pneumoniae [4] = assay: Antibacterial activity against clarithromycin resistance selected Streptococcus pneumoniae 3009 after 10 antibiotic-free subcultures by macrodilution method
Streptococcus pneumoniae [5] = assay: Antibacterial activity against moxifloxacin resistance selected Streptococcus pneumoniae 3009 with GyrA S81F and ParC D83N mutation after 10 antibiotic-free subcultures by macrodilution method
Streptococcus pneumoniae [6] = assay: Antibacterial activity against gatifloxacin resistance selected Streptococcus pneumoniae 3009 after 10 antibiotic-free subcultures by macrodilution method
Streptococcus pneumoniae [7] = assay: Antibacterial activity against moxifloxacin resistance selected Streptococcus pneumoniae 24 with GyrA S81Y, GyrB P413S and ParC S79F mutation after 10 antibiotic-free subcultures by macrodilution method
Streptococcus pneumoniae [8] = assay: Antibacterial activity against azithromycin resistance selected Streptococcus pneumoniae 2527 after 10 antibiotic-free subcultures by macrodilution method
Streptococcus pneumoniae [9] = assay: Antibacterial activity against moxifloxacin resistance selected Streptococcus pneumoniae 3665 with GyrA S81Y mutation after 10 antibiotic-free subcultures by macrodilution method
Streptococcus pneumoniae [10] = assay: Antibacterial activity against moxifloxacin resistance selected Streptococcus pneumoniae 3243 after 10 antibiotic-free subcultures by macrodilution method
Streptococcus pneumoniae [11] = assay: Antibacterial activity against Streptococcus pneumoniae assessed as period of suppression of bacterial growth
Streptococcus pneumoniae [12] = assay: Antibacterial activity against gatifloxacin resistance selected Streptococcus pneumoniae 37 with GyrA S81Y, GyrB E474K and ParC S79Y mutation after 10 antibiotic-free subcultures by macrodilution method
Streptococcus pneumoniae [13] = assay: Antibacterial activity against moxifloxacin resistance selected Streptococcus pneumoniae 19 with GyrA S81F mutation after 10 antibiotic-free subcultures by macrodilution method
Streptococcus pneumoniae [14] = assay: Antibacterial activity against azithromycin resistance selected Streptococcus pneumoniae 1077 with 23S rRNA A2058G mutation after 10 antibiotic-free subcultures by macrodilution method
Streptococcus pneumoniae [15] = assay: Antibacterial activity against levofloxacin resistance selected Streptococcus pneumoniae 3009 with GyrA S81Y and ParC S79Y mutation after 10 antibiotic-free subcultures by macrodilution method
Streptococcus pneumoniae [16] = assay: Antibacterial activity against moxifloxacin resistance selected Streptococcus pneumoniae 1076 with ParC S79Y mutation after 10 antibiotic-free subcultures by macrodilution method
Streptococcus pneumoniae [17] = assay: Antibacterial activity against gatifloxacin resistance selected Streptococcus pneumoniae 1076 with ParC S79Y mutation after 10 antibiotic-free subcultures by macrodilution method
Streptococcus pneumoniae [18] = assay: Antibacterial activity against clarithromycin resistance selected Streptococcus pneumoniae 3243 with 23S rRNA A2059T mutation after 10 antibiotic-free subcultures by macrodilution method
Streptococcus pneumoniae [19] = assay: Antibacterial activity against levofloxacin resistance selected Streptococcus pneumoniae 19 with GyrA S81Y and ParC D83Y mutation after 10 antibiotic-free subcultures by macrodilution method
Streptococcus pneumoniae [20] = assay: Antibacterial activity against clarithromycin resistance selected Streptococcus pneumoniae 3665 after 10 antibiotic-free subcultures by macrodilution method

C=CC1=C(C(=O)O)N2C(=O)[C@@H](NC(=O)/C(=N\O)c3csc(N)n3)[C@H]2SC1
MIC (Streptococcus pneumoniae [1]): 0.125 µg/mL (≈ 0.316 µM) | MIC (Streptococcus pneumoniae [2]): 0.125 µg/mL (≈ 0.316 µM) | MIC (Streptococcus pneumoniae [3]): 0.06 µg/mL (≈ 0.152 µM) | MIC (Streptococcus pneumoniae [4]): 0.125 µg/mL (≈ 0.316 µM) | MIC (Streptococcus pneumoniae [5]): 0.06 µg/mL (≈ 0.152 µM) | MIC (Streptococcus pneumoniae [6]): 0.125 µg/mL (≈ 0.316 µM) | MIC (Streptococcus pneumoniae [7]): 2 µg/mL (≈ 5.06 µM) | MIC (Streptococcus pneumoniae [8]): 16 µg/mL (≈ 40.5 µM) | MIC (Streptococcus pneumoniae [9]): 0.125 µg/mL (≈ 0.316 µM) | MIC (Streptococcus pneumoniae [10]): 0.06 µg/mL (≈ 0.152 µM) | Post Antibiotic Effe (Streptococcus pneumoniae [11]): 1.6 h | MIC (Streptococcus pneumoniae [12]): 4 µg/mL (≈ 10.1 µM) | MIC (Streptococcus pneumoniae [13]): 2 µg/mL (≈ 5.06 µM) | MIC (Streptococcus pneumoniae [14]): 0.06 µg/mL (≈ 0.152 µM) | MIC (Streptococcus pneumoniae [15]): 0.06 µg/mL (≈ 0.152 µM) | MIC (Streptococcus pneumoniae [16]): 0.06 µg/mL (≈ 0.152 µM) | MIC (Streptococcus pneumoniae [17]): 0.125 µg/mL (≈ 0.316 µM) | MIC (Streptococcus pneumoniae [18]): 0.25 µg/mL (≈ 0.632 µM) | MIC (Streptococcus pneumoniae [19]): 4 µg/mL (≈ 10.1 µM) | MIC (Streptococcus pneumoniae [20]): 0.25 µg/mL (≈ 0.632 µM)

CO/N=C(\C(=O)N[C@@H]1C(=O)N2C(C(=O)O)=C(CSc3nc(=O)c(O)nn3C)CS[C@H]12)c1csc(N)n1 [CEFTRIAXONE]
MIC (Streptococcus pneumoniae [1]): 0.03 µg/mL (≈ 0.0541 µM) | MIC (Streptococcus pneumoniae [2]): 0.125 µg/mL (≈ 0.225 µM) | MIC (Streptococcus pneumoniae [3]): 0.03 µg/mL (≈ 0.0541 µM) | MIC (Streptococcus pneumoniae [4]): 0.016 µg/mL (≈ 0.0289 µM) | MIC (Streptococcus pneumoniae [5]): 0.03 µg/mL (≈ 0.0541 µM) | MIC (Streptococcus pneumoniae [6]): 0.016 µg/mL (≈ 0.0289 µM) | MIC (Streptococcus pneumoniae [7]): 1 µg/mL (≈ 1.8 µM) | MIC (Streptococcus pneumoniae [8]): 2 µg/mL (≈ 3.61 µM) | MIC (Streptococcus pneumoniae [9]): 0.06 µg/mL (≈ 0.108 µM) | MIC (Streptococcus pneumoniae [10]): ≤ 0.008 µg/mL | Post Antibiotic Effe (Streptococcus pneumoniae [11]): 1.3 h | MIC (Streptococcus pneumoniae [12]): 2 µg/mL (≈ 3.61 µM) | MIC (Streptococcus pneumoniae [13]): 2 µg/mL (≈ 3.61 µM) | MIC (Streptococcus pneumoniae [14]): 0.03 µg/mL (≈ 0.0541 µM) | MIC (Streptococcus pneumoniae [15]): 0.016 µg/mL (≈ 0.0289 µM) | MIC (Streptococcus pneumoniae [16]): 0.016 µg/mL (≈ 0.0289 µM) | MIC (Streptococcus pneumoniae [17]): 0.016 µg/mL (≈ 0.0289 µM) | MIC (Streptococcus pneumoniae [18]): 0.125 µg/mL (≈ 0.225 µM) | MIC (Streptococcus pneumoniae [19]): 2 µg/mL (≈ 3.61 µM) | MIC (Streptococcus pneumoniae [20]): 0.03 µg/mL (≈ 0.0541 µM)
